Test results reported in article PMC6222558, “Synthesis and Evolution of Berberine Derivatives as a New Class of Antiviral Agents against Enterovirus 71 through the MEK/ERK Pathway and Autophagy” (Molecules : A Journal of Synthetic Chemistry and Natural …, 2018).

Experiments:
Vero cells = assay: Cytotoxicity assay (CCK) in Vero cells; assay type: cell-based, African green monkey; settings: African green monkey, 48 h
Experimental: (§1) Vero cells were purchased from the American Type Culture Collection (ATCC, […], MD, USA), and were cultured in Minimum Essential Medium (MEM) supplemented with 10% fetal bovine serum (FBS) (GIBCO, Grand Island, NY, USA) and antibiotics (100 U/mL penicillin and […] streptomycin) at 37 °C in a 5% CO2 incubator. EV71 strain SHZH98 isolated from the throat swab sample of an HFMD case occurring in 1998 in China was kindly provided by Dr. Qi Jin (Institute of Pathogen Biology, Chinese Academy of Medical Science and Peking Union Medical School, Beijing, China), and JS-52 strain was a kind gift from Dr. Xiangzhong Ye (Beijing Wantai Biological Pharmacy Enterprise Co., Ltd., Beijing, China). The EV71 BrCr and H strains were purchased from the ATCC. All of EV71 strains were passaged in Vero cells.
Cytotoxicity of all target compounds in Vero cells was analyzed by CCK (TransGen Biotech, Beijing, China) assay. In brief, cells in exponential phase (3 × 10^4 cells/well) were seeded into 96-well culture plates and incubated overnight. Then, the medium was removed and different concentrations of all target compounds were applied in duple. After 48 h incubation, the cytotoxicity of all target compounds was determined by CCK assay. The signals were read at 450 nm on Enspire (Perkin Elmer, Waltham, MA, USA). The TC50 was defined as the concentration that inhibits 50% cellular growth in comparison with the controls. It is calculated by the Reed and Muench method.

[1] = test system: EV71 H strain (VR-1432, genotype C2); assay: CPE inhibition assay for anti-EV71, H strain; assay type: cell-based, enterovirus 71 (EV71); settings: Vero cells; for IC50: Enterovirus A, EV71, CPE, calculated on the organic part, n = 3, read-out: H Strain IC50; for anti-EV71 activity against H strain, in words: compared with BBR
Experimental: (§2) Thus, all newly synthesized BBR analogues were screened for their anti-EV71 potencies in African green monkey kidney (Vero) cells taking BBR as the positive control. EV71 strains used in the present study include different genotype strains, such as H strain (VR-1432, genotype C2), BrCr strain (VR-1775, genotype A), and JS-52 and SHZH98 (genotype C4). The potency against EV71 strains above mentioned of each tested compound was evaluated by the combination of its IC50 and selectivity index (SI) value as the important therapeutic indication.
as §1
(§3) The anti-EV71 activities of all tested compounds were detected by the virus-induced CPE assay. Briefly, cells (3 × 10^4 cells/well) were plated into 96-well culture plates and incubated for 16 h. Then, remove the medium and infected cells with EV71 of 100 × TCID50 (50% tissue culture infective doses) in serum-free medium for 1 h at 37 °C. After that, the unbound viruses were removed and various concentrations of tested compounds were supplemented for incubation of another 72 h. […] TC50 defined as the concentration that leads to the 50% of CPE which determined by the same method in 72 h. In addition, the cells were stained the cells were colored with 0.5% crystal violet in 20% ethanol for 15 min at room temperature and the cells were imaged after rinsed with PBS.

[2] = test system: EV71 JS-52 strain (genotype C4); assay: CPE inhibition assay for anti-EV71, JS-52 strain; assay type: cell-based, enterovirus 71 (EV71); settings: Enterovirus A, EV71; Vero cells; CPE; calculated on the organic part; n = 3; read-out: JS-52 Strain IC50
Experimental: as §2, §1, §3

[3] = test system: EV71 SHZH98 strain (genotype C4); assay: CPE inhibition assay for anti-EV71, SHZH98 strain; assay type: cell-based, enterovirus 71 (EV71); settings: Enterovirus A, EV71; Vero cells; CPE; calculated on the organic part; n = 3; read-out: SHZH98 Strain IC50
Experimental: as §2, §1, §3

[4] = test system: EV71 BrCr strain (VR-1775, genotype A); assay: CPE inhibition assay for anti-EV71, BrCr strain; assay type: cell-based, enterovirus 71 (EV71); settings: Enterovirus A, EV71; Vero cells; CPE; calculated on the organic part; n = 3; read-out: BrCr Strain IC50
Experimental: as §2, §1, §3

Row | Structure (SMILES) | TC50 (median toxic concentration) (Vero cells) [µM] | IC50 [1] [µM] | IC50 [2] [µM] | IC50 [3] [µM] | IC50 [4] [µM] | anti-EV71 activity against H strain, in words [1]
1 | CCOC(=O)COc1c(OC)ccc2cc3[n+](cc12)CCc1cc2c(cc1-3)OCO2 [2a, 2,3-Methylenedioxy-9-ethyloxyformylmethylenoxy-10-methoxy protoberberine chloride] | 223 | 48.3 | 45.5 | 60.4 | 32.3 | –
2 | COc1ccc2cc3[n+](cc2c1OCC(=O)OCC(C)C)CCc1cc2c(cc1-3)OCO2 [2b, 2,3-Methylenedioxy-9-isobutyloxyformylmethylenoxy-10-methoxy protoberberine chloride] | 22.3 | > 5.34 | 5.73 | 5.46 | 2.04 | –
3 | COc1ccc2cc3[n+](cc2c1OCC(=O)C(C)(C)C)CCc1cc2c(cc1-3)OCO2 [2c, 2,3-Methylenedioxy-9-pivalylmethylenoxy-10-methoxy protoberberine chloride] | 27.9 | 13.8 | 7.26 | 8.59 | 4.26 | –
4 | COc1ccc2cc3[n+](cc2c1OCC(=O)O)CCc1cc2c(cc1-3)OCO2 [2d-a, 2,3-Methylenedioxy-9-carboxylmethylenoxy-10-methoxy protoberberine chloride] | 437 | > 145 | 145 | > 145 | 145 | complete loss on the antivirus potency
5 | COc1ccc2cc3[n+](cc2c1OCC(=O)c1ccc(C)cc1)CCc1cc2c(cc1-3)OCO2 [2e, 2,3-Methylenedioxy-9-p-tolylformylmethylenoxy-10-methoxy protoberberine chloride] | 14.4 | > 5.31 | 2.67 | 2.84 | 2.23 | –
6 | COc1cccc(C(=O)COc2c(OC)ccc3cc4[n+](cc23)CCc2cc3c(cc2-4)OCO3)c1 [2f, 2,3-Methylenedioxy-9-m-methoxyphenylformylmethylenoxy-10-methoxy protoberberine chloride] | 9.22 | > 5.33 | 1.61 | 1.85 | 2.21 | –
7 | COc1ccc2cc3[n+](cc2c1OCC(=O)c1ccc(C(F)(F)F)cc1)CCc1cc2c(cc1-3)OCO2 [2g, 2,3-Methylenedioxy-9-p-trifloromethylphenylformylmethylenoxy-10-methoxy protoberberine chloride] | 54.9 | 15.8 | 11.9 | 12.3 | 10.6 | –
8 | COc1ccc2cc3[n+](cc2c1OC(=O)OCc1ccccc1)CCc1cc2c(cc1-3)OCO2 [2h, 2,3-Methylenedioxy-9-benzyloxyformyloxy-10-methoxy protoberberine chloride] | 124 | > 47.9 | > 47.9 | > 47.9 | 47.9 | obvious decreased activity
9 | CCOC(=O)Oc1c(OC)ccc2cc3[n+](cc12)CCc1cc2c(cc1-3)OCO2 [2i, 2,3-Methylenedioxy-9-ethyloxyformyloxy-10-methoxy protoberberine chloride] | 167 | 31.1 | 43.6 | 45.7 | 33.6 | obvious decreased activity
10 | CCOC(=O)COc1c(OC)ccc2cc3[n+](cc12)CCc1cc(OC)c(OC)cc1-3 [4a, 2,3,10-Trimethoxy-9-ethyloxyformylmethylenoxy protoberberine chloride] | 434 | 144 | > 144 | > 144 | > 144 | –
11 | COc1cc2c(cc1OC)-c1cc3ccc(OC)c(OCC(=O)C(C)(C)C)c3c[n+]1CC2 [4b, 2,3,10-Trimethoxy-9-pivalylmethylenoxy protoberberine chloride] | 333 | > 144 | 109 | > 144 | 144 | –
12 | COc1cc2c(cc1OC)-c1cc3ccc(OC)c(OCC(=O)OCc4ccccc4)c3c[n+]1CC2 [4c, 2,3,10-Trimethoxy-9-benzyloxyformylmethylenoxy protoberberine chloride] | 452 | > 143 | 99.3 | > 143 | 81.1 | –
13 | COc1cc2c(cc1OC)-c1cc3ccc(OC)c(OCC(=O)c4ccc(C)cc4)c3c[n+]1CC2 [4d, 2,3,10-Trimethoxy-9-p-tolylformylmethylenoxy protoberberine chloride] | 50.0 | > 15.9 | 44.2 | > 47.8 | 44.2 | –
14 | COc1cccc(C(=O)COc2c(OC)ccc3cc4[n+](cc23)CCc2cc(OC)c(OC)cc2-4)c1 [4e, 2,3,10-Trimethoxy-9-m-methoxyphenylformylmethylenoxy protoberberine chloride] | 143 | 13.6 | 19.4 | 27.6 | 17.1 | comparable activity to BBR
15 | COc1cc2c(cc1OC)-c1cc3ccc(OC)c(OCC(=O)c4ccc(C(F)(F)F)cc4)c3c[n+]1CC2 [4f, 2,3,10-Trimethoxy-9-p-trifloromethylphenylformylmethylenoxy protoberberine chloride] | 306 | 82.2 | 54.2 | 82.2 | 66 | –
16 | COc1cc2c(cc1OC)-c1cc3ccc(OC)c(OC(=O)OCc4ccccc4)c3c[n+]1CC2 [4g, 2,3,10-Trimethoxy-9-benzyloxyformyloxy protoberberine chloride] | 351 | > 143 | 129 | > 143 | > 143 | –
17 | CCOC(=O)COc1cc2c(cc1OC)-c1cc3ccc(OC)c(OC)c3c[n+]1CC2 [5a, 2,9,10-Trimethoxy-3-ethyloxyformylmethylenoxy protoberberine chloride] | 250 | 130 | 109 | 144 | 125 | –
18 | COc1cc2c(cc1OCC(=O)C(C)(C)C)CC[n+]1cc3c(OC)c(OC)ccc3cc1-2 [5b, 2,9,10-Trimethoxy-3-pivalylmethylenoxy protoberberine chloride] | 83.3 | 41.3 | 34.2 | 69.3 | 34.2 | –
19 | COc1cc2c(cc1OCC(=O)OCc1ccccc1)CC[n+]1cc3c(OC)c(OC)ccc3cc1-2 [5c, 2,9,10-Trimethoxy-3-benzyloxyformylmethylenoxy protoberberine chloride] | 248 | 93.7 | 101 | 123 | 44.1 | –
20 | COc1cc2c(cc1OCC(=O)c1ccc(C)cc1)CC[n+]1cc3c(OC)c(OC)ccc3cc1-2 [5d, 2,9,10-Trimethoxy-3-p-methylphenylformylmethylenoxy protoberberine chloride] | 41.0 | > 15.9 | 9.01 | 12 | > 15.9 | –
